Experimental data published in PubChem BioAssay (NCI).
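Compound exposure: 48 hours, 5 concentrations, 96-well plates. GI50: concentration for 50% inhibition of growth. TGI: total growth inhibition.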

Key:
Assay in all cases: DTP human tumour cell line panel, 48 h
SK-OV-3 ovarian = system: SK-OV-3 ovarian
OVCAR-3 ovarian = system: OVCAR-3 ovarian
OVCAR-8 ovarian = system: OVCAR-8 ovarian
MCF7 breast = system: MCF7 breast
PC-3 prostate = system: PC-3 prostate
SF-539 CNS = system: SF-539 CNS
A498 renal = system: A498 renal
SNB-75 CNS = system: SNB-75 CNS
UACC-62 melanoma = system: UACC-62 melanoma
NCI-H226 lung = system: NCI-H226 lung
TK-10 renal = system: TK-10 renal
SN12C renal = system: SN12C renal
SF-295 CNS = system: SF-295 CNS

Compound `O=C1C=C(c2ccccc2)O/C1=C\C(=O)c1ccc(Cl)cc1` has a TGI (SK-OV-3 ovarian) greater than 100 µM, a TGI (OVCAR-3 ovarian) of 47.1 µM and a TGI (OVCAR-8 ovarian) of 83.4 µM. The TGI (MCF7 breast) was 34.9 µM, the TGI (PC-3 prostate) was 30.3 µM and the TGI (SF-539 CNS) was greater than 100 µM. It also gave a TGI (A498 renal) greater than 100 µM, a TGI (SNB-75 CNS) of 18.2 µM and a TGI (UACC-62 melanoma) of 30.4 µM. It also gave a TGI (NCI-H226 lung) of 44.5 µM, a TGI (TK-10 renal) of 35 µM and a TGI (SN12C renal) of 11.5 µM.
`CCC1CCC2c3c([nH]c4ccc(C)cc34)C3C(=O)N(N(C)C)C(=O)C3C2C1` (centres undefined) gave a TGI (SK-OV-3 ovarian) greater than 100 µM, a TGI (OVCAR-3 ovarian) of 2.98 µM and a TGI (OVCAR-8 ovarian) greater than 100 µM. It also gave a TGI (MCF7 breast) greater than 100 µM, a TGI (PC-3 prostate) greater than 100 µM and a TGI (SF-539 CNS) of 45.5 µM. The TGI (A498 renal) was greater than 100 µM, the TGI (SF-295 CNS) was greater than 33.4 µM and the TGI (UACC-62 melanoma) was greater than 100 µM. For the same compound, the TGI (NCI-H226 lung) was greater than 100 µM, the TGI (TK-10 renal) was greater than 100 µM and the TGI (SN12C renal) was greater than 100 µM.
In the case of `COC(=O)/N=[N+](\[O-])C(c1ccccc1)c1ccccc1`, the TGI (SK-OV-3 ovarian) is reported as greater than 100 µM, the TGI (OVCAR-3 ovarian) is reported as greater than 100 µM and the TGI (OVCAR-8 ovarian) is reported as greater than 100 µM. The TGI (MCF7 breast) was greater than 100 µM, the TGI (PC-3 prostate) was greater than 100 µM and the TGI (SF-539 CNS) was greater than 100 µM. It also gave a TGI (A498 renal) greater than 100 µM, a TGI (SNB-75 CNS) greater than 100 µM and a TGI (UACC-62 melanoma) greater than 100 µM. It also gave a TGI (NCI-H226 lung) greater than 100 µM, a TGI (TK-10 renal) greater than 100 µM and a TGI (SN12C renal) greater than 100 µM.
`C/C=C\C(CC(=O)OC)CC(=O)N(CCC1CN(S(=O)(=O)C(F)(F)F)c2ccccc21)Cc1ccc(OC)cc1OC` (centres undefined) was tested, and the TGI (SK-OV-3 ovarian) was greater than 100 µM, the TGI (OVCAR-3 ovarian) was greater than 100 µM and the TGI (MCF7 breast) was greater than 100 µM. It also gave a TGI (PC-3 prostate) greater than 100 µM, a TGI (SF-539 CNS) greater than 100 µM and a TGI (A498 renal) greater than 100 µM. For the same compound, the TGI (SNB-75 CNS) was greater than 100 µM, the TGI (SF-295 CNS) was greater than 100 µM and the TGI (NCI-H226 lung) was greater than 100 µM. For the same compound, the TGI (TK-10 renal) was greater than 100 µM and the TGI (SN12C renal) was greater than 100 µM.
`CCNc1nnc(-c2ccccc2Nc2ccccc2-c2nnc(NCC)s2)s1` was tested, and the TGI (SK-OV-3 ovarian) was 31.3 µM, the TGI (OVCAR-3 ovarian) was greater than 100 µM and the TGI (OVCAR-8 ovarian) was greater than 83.9 µM. For the same compound, the TGI (MCF7 breast) was 29.7 µM, the TGI (PC-3 prostate) was greater than 69.4 µM and the TGI (A498 renal) was 91 µM. The TGI (SNB-75 CNS) was greater than 87.9 µM, the TGI (SF-295 CNS) was 40.5 µM and the TGI (UACC-62 melanoma) was 35.3 µM. It also gave a TGI (NCI-H226 lung) of 77.2 µM, a TGI (TK-10 renal) greater than 57.6 µM and a TGI (SN12C renal) greater than 49.7 µM.
`C=C(Cl)C(C)(Cl)CCC(Cl)C(C)C` (centres undefined) gave a TGI (SK-OV-3 ovarian) greater than 100 µM, a TGI (OVCAR-3 ovarian) greater than 100 µM and a TGI (MCF7 breast) greater than 100 µM. The TGI (PC-3 prostate) was greater than 100 µM, the TGI (SF-539 CNS) was greater than 100 µM and the TGI (A498 renal) was greater than 100 µM. The TGI (SNB-75 CNS) was greater than 100 µM, the TGI (SF-295 CNS) was greater than 100 µM and the TGI (UACC-62 melanoma) was greater than 100 µM. For the same compound, the TGI (NCI-H226 lung) was greater than 100 µM, the TGI (TK-10 renal) was greater than 100 µM and the TGI (SN12C renal) was greater than 100 µM.
`CC(=O)Oc1ccc2cc(-c3ccc(OC(C)=O)c(OC(C)=O)c3)c(=O)oc2c1` was tested, and the TGI (OVCAR-3 ovarian) was greater than 100 µM, the TGI (OVCAR-8 ovarian) was greater than 100 µM and the TGI (MCF7 breast) was greater than 100 µM. For the same compound, the TGI (PC-3 prostate) was greater than 100 µM, the TGI (SF-539 CNS) was greater than 100 µM and the TGI (A498 renal) was greater than 100 µM. The TGI (SF-295 CNS) was greater than 100 µM, the TGI (NCI-H226 lung) was greater than 100 µM and the TGI (TK-10 renal) was greater than 100 µM. It also gave a TGI (SN12C renal) greater than 100 µM.
With `CCOc1cccc(-c2cc(=O)c3cc4c(cc3[nH]2)OCO4)c1` the TGI (OVCAR-3 ovarian) was 3.88 µM, the TGI (OVCAR-8 ovarian) was 2.7 µM and the TGI (MCF7 breast) was greater than 100 µM. The TGI (PC-3 prostate) was greater than 100 µM, the TGI (SF-539 CNS) was 0.549 µM and the TGI (A498 renal) was greater than 100 µM. For the same compound, the TGI (SNB-75 CNS) was 36.1 µM, the TGI (SF-295 CNS) was 0.329 µM and the TGI (UACC-62 melanoma) was 21.1 µM. For the same compound, the TGI (NCI-H226 lung) was 15.1 µM, the TGI (TK-10 renal) was 8.45 µM and the TGI (SN12C renal) was 5.38 µM.
Work on `CC1=CC(=O)N(n2c(Cc3ccc(Cl)cc3)n[nH]c2=O)C1=O` yielded a TGI (SK-OV-3 ovarian) greater than 100 µM, a TGI (OVCAR-3 ovarian) greater than 100 µM and a TGI (OVCAR-8 ovarian) greater than 100 µM. It also gave a TGI (MCF7 breast) greater than 100 µM, a TGI (PC-3 prostate) greater than 100 µM and a TGI (SF-539 CNS) greater than 100 µM. It also gave a TGI (A498 renal) greater than 100 µM, a TGI (SF-295 CNS) greater than 100 µM and a TGI (UACC-62 melanoma) of 45.4 µM. For the same compound, the TGI (NCI-H226 lung) was greater than 100 µM, the TGI (TK-10 renal) was greater than 100 µM and the TGI (SN12C renal) was greater than 100 µM.
`O=C1CC2CC(CC3(CO3)C2)C1F` (centres undefined) gave a TGI (SK-OV-3 ovarian) greater than 100 µM, a TGI (OVCAR-8 ovarian) greater than 100 µM and a TGI (MCF7 breast) greater than 100 µM. For the same compound, the TGI (PC-3 prostate) was greater than 100 µM, the TGI (A498 renal) was greater than 100 µM and the TGI (SNB-75 CNS) was greater than 100 µM. The TGI (SF-295 CNS) was greater than 100 µM, the TGI (UACC-62 melanoma) was greater than 100 µM and the TGI (NCI-H226 lung) was greater than 100 µM. The TGI (TK-10 renal) was greater than 100 µM and the TGI (SN12C renal) was greater than 100 µM.
`C#CCOCn1cc(C)c(=O)[nH]c1=O` was tested, and the TGI (SK-OV-3 ovarian) was greater than 100 µM, the TGI (OVCAR-8 ovarian) was greater than 100 µM and the TGI (MCF7 breast) was greater than 100 µM. For the same compound, the TGI (PC-3 prostate) was greater than 100 µM, the TGI (SF-539 CNS) was greater than 100 µM and the TGI (A498 renal) was greater than 100 µM. The TGI (SNB-75 CNS) was greater than 100 µM, the TGI (SF-295 CNS) was greater than 100 µM and the TGI (UACC-62 melanoma) was greater than 100 µM. For the same compound, the TGI (NCI-H226 lung) was greater than 100 µM, the TGI (TK-10 renal) was greater than 100 µM and the TGI (SN12C renal) was greater than 100 µM.
With `O=c1[nH]nc(Cc2ccccc2)n1/N=C/c1ccc([N+](=O)[O-])cc1` the TGI (OVCAR-3 ovarian) was greater than 100 µM, the TGI (OVCAR-8 ovarian) was greater than 100 µM and the TGI (MCF7 breast) was greater than 100 µM. The TGI (PC-3 prostate) was greater than 100 µM, the TGI (SF-539 CNS) was greater than 100 µM and the TGI (A498 renal) was greater than 100 µM. The TGI (SNB-75 CNS) was greater than 100 µM, the TGI (SF-295 CNS) was greater than 100 µM and the TGI (UACC-62 melanoma) was greater than 100 µM. For the same compound, the TGI (NCI-H226 lung) was greater than 100 µM, the TGI (TK-10 renal) was greater than 100 µM and the TGI (SN12C renal) was greater than 100 µM.
Compound `C=C1c2nc3ccccc3n2C=C(c2ccc(Cl)cc2)N1c1ccc(OCCN2CCCCC2)cc1` has a GI50 (SK-OV-3 ovarian) greater than 100 µM, a TGI (SK-OV-3 ovarian) greater than 100 µM and a TGI (OVCAR-3 ovarian) greater than 45 µM. It also gave a TGI (OVCAR-8 ovarian) greater than 45 µM, a GI50 (MCF7 breast) greater than 100 µM and a TGI (MCF7 breast) greater than 100 µM. The GI50 (PC-3 prostate) was greater than 100 µM, the TGI (PC-3 prostate) was greater than 100 µM and the TGI (SF-539 CNS) was greater than 100 µM. It also gave a GI50 (A498 renal) greater than 100 µM, a TGI (A498 renal) greater than 100 µM and a TGI (SF-295 CNS) greater than 45 µM. For the same compound, the GI50 (UACC-62 melanoma) was greater than 100 µM, the TGI (UACC-62 melanoma) was greater than 100 µM and the TGI (NCI-H226 lung) was greater than 100 µM. It also gave a GI50 (TK-10 renal) greater than 100 µM, a TGI (TK-10 renal) greater than 100 µM and a TGI (SN12C renal) greater than 45 µM.
`C[N+]12C=CC=C1C(N1CCCC1)c1scc(-c3ccc(F)cc3)c12` (centres undefined) gave a TGI (SK-OV-3 ovarian) greater than 100 µM, a TGI (OVCAR-3 ovarian) greater than 100 µM and a TGI (OVCAR-8 ovarian) greater than 100 µM. It also gave a TGI (MCF7 breast) of 88.6 µM, a TGI (PC-3 prostate) greater than 100 µM and a TGI (A498 renal) greater than 100 µM. The TGI (SNB-75 CNS) was greater than 100 µM, the TGI (SF-295 CNS) was greater than 100 µM and the TGI (UACC-62 melanoma) was greater than 100 µM. The TGI (NCI-H226 lung) was greater than 100 µM and the TGI (SN12C renal) was greater than 100 µM.
